pIC50: −log10 of the molar value.
Experiments:
HepG2 [1] = experiment: Cytotoxicity against Homo sapiens (human) HepG2 cells assessed as cell surviving fraction at 100 uM after 48 hr by SRB assay; assay type: functional
HepG2 [2] = experiment: Cytotoxicity against Homo sapiens (human) HepG2 cells assessed as cell surviving fraction at 25 uM after 48 hr by SRB assay; assay type: functional
HepG2 [3] = experiment: Cytotoxicity against Homo sapiens (human) HepG2 cells after 48 hr by SRB assay; assay type: functional, cell-based; details: HepG2, 48 h
HepG2 [4] = experiment: Cytotoxicity against Homo sapiens (human) HepG2 cells assessed as cell surviving fraction at 10 uM after 48 hr by SRB assay; assay type: functional
HepG2 [5] = experiment: Cytotoxicity against Homo sapiens (human) HepG2 cells assessed as cell surviving fraction at 50 uM after 48 hr by SRB assay; assay type: functional
HepG2 [6] = experiment: Cytotoxicity against Homo sapiens (human) HepG2 cells assessed as cell surviving fraction at 25 uM after 48 hr followed by gamma-radiation at dose level of 8 Gy by SRB assay; assay type: functional
HepG2 [7] = experiment: Cytotoxicity against Homo sapiens (human) HepG2 cells after 48 hr followed by gamma-radiation at dose level of 8 Gy by SRB assay; assay type: functional, cell-based; details: HepG2, 48 h
HepG2 [8] = experiment: Cytotoxicity against Homo sapiens (human) HepG2 cells assessed as cell surviving fraction at 100 uM after 48 hr followed by gamma-radiation at dose level of 8 Gy by SRB assay; assay type: functional
HepG2 [9] = experiment: Cytotoxicity against Homo sapiens (human) HepG2 cells assessed as cell surviving fraction at 10 uM after 48 hr followed by gamma-radiation at dose level of 8 Gy by SRB assay; assay type: functional
HepG2 [10] = experiment: Cytotoxicity against Homo sapiens (human) HepG2 cells assessed as cell surviving fraction at 50 uM after 48 hr followed by gamma-radiation at dose level of 8 Gy by SRB assay; assay type: functional

SMILES	Ratio (HepG2 [1])	Ratio (HepG2 [2])	pIC50 (HepG2 [3])	Ratio (HepG2 [4])	Ratio (HepG2 [5])	Ratio (HepG2 [6])	pIC50 (HepG2 [7])	Ratio (HepG2 [8])	Ratio (HepG2 [9])	Ratio (HepG2 [10])
Nc1ncnc2c1C(c1ccc([N+](=O)[O-])cc1)c1sc(Nc3ccc(S(N)(=O)=O)cc3)nc1O2 (stereo not drawn)	0.489	0.605	4.19	0.814	0.287	–	–	–	–	–
N#CC1=C(NC(=O)CCC(=O)O)Oc2nc(Nc3ccc(S(N)(=O)=O)cc3)sc2C1c1ccc([N+](=O)[O-])cc1 (stereo not drawn)	0.166	0.382	4.49	0.626	0.127	0.23	4.82	0.13	0.36	0.11
NS(=O)(=O)c1ccc(NC2=NC(=O)CS2)cc1	0.231	0.501	4.37	0.848	0.168	0.48	4.52	0.12	0.53	0.12
N#CC1=C(N2C(=O)CCC2=O)Oc2nc(Nc3ccc(S(N)(=O)=O)cc3)sc2C1c1ccc([N+](=O)[O-])cc1 (stereo not drawn)	0.231	0.474	4.35	0.71	0.342	–	–	–	–	–
Nc1nc(=S)[nH]c2c1C(c1ccc([N+](=O)[O-])cc1)c1sc(Nc3ccc(S(N)(=O)=O)cc3)nc1O2 (stereo not drawn)	0.246	0.432	4.41	0.615	0.284	–	–	–	–	–
CC(=O)CC(=O)NC1=C(C#N)C(c2ccc([N+](=O)[O-])cc2)c2sc(Nc3ccc(S(N)(=O)=O)cc3)nc2O1 (stereo not drawn)	0.299	0.456	4.43	0.546	0.206	–	–	–	–	–
COc1ccc(C2C(C#N)=C(N)Oc3nc(Nc4ccc(S(N)(=O)=O)cc4)sc32)cc1OC (stereo not drawn)	0.672	0.564	–	0.628	0.64	–	–	–	–	–
COc1ccc(C2c3sc(Nc4ccc(S(N)(=O)=O)cc4)nc3Oc3nc(C)[nH]c(=O)c32)cc1OC (stereo not drawn)	0.115	0.477	4.52	0.529	0.118	0.12	5.10	0.11	0.31	0.1
COc1ccc(C2c3sc(Nc4ccc(S(N)(=O)=O)cc4)nc3Oc3nc[nH]c(=O)c32)cc1OC (stereo not drawn)	0.127	0.446	4.49	0.561	0.164	–	–	–	–	–
N#CC1=C(N)Oc2nc(Nc3ccc(S(N)(=O)=O)cc3)sc2C1c1ccc([N+](=O)[O-])cc1 (stereo not drawn)	0.312	0.767	4.22	0.846	0.376	–	–	–	–	–
COc1cccc2c1C(=O)c1c(O)c3c(c(O)c1C2=O)C[C@@](O)(C(=O)CO)C[C@@H]3O[C@H]1C[C@H](N)[C@H](O)[C@H](C)O1 [DOXORUBICIN]	0.125	0.479	4.49	0.537	0.122	–	–	–	–	–
NS(=O)(=O)c1ccc(Nc2nc3c(s2)C(c2ccc([N+](=O)[O-])cc2)c2c(nc[nH]c2=O)O3)cc1 (stereo not drawn)	0.015	0.498	4.44	0.625	0.168	0.22	4.74	0.14	0.41	0.12
Cc1nc2c(c(=O)[nH]1)C(c1ccc([N+](=O)[O-])cc1)c1sc(Nc3ccc(S(N)(=O)=O)cc3)nc1O2 (stereo not drawn)	0.213	0.498	4.35	0.764	0.301	–	–	–	–	–
Nc1nc(=O)[nH]c2c1C(c1ccc([N+](=O)[O-])cc1)c1sc(Nc3ccc(S(N)(=O)=O)cc3)nc1O2 (stereo not drawn)	0.262	0.487	4.35	0.779	0.244	–	–	–	–	–
N#CC1=C(N)Oc2nc(Nc3ccc(S(N)(=O)=O)cc3)sc2C1c1ccccc1Cl (stereo not drawn)	0.655	0.861	–	0.909	0.582	–	–	–	–	–
N#CC1=C(N)Oc2nc(Nc3ccc(S(N)(=O)=O)cc3)sc2C1c1cccc(Br)c1 (stereo not drawn)	0.509	0.564	4.14	0.846	0.388	–	–	–	–	–
COc1ccc(C2c3sc(Nc4ccc(S(N)(=O)=O)cc4)nc3Oc3[nH]c(=S)n(-c4ccccc4)c(=N)c32)cc1OC (stereo not drawn)	0.137	0.434	4.51	0.593	0.128	0.21	4.77	0.13	0.4	0.12
